{"source": "patent US9162992B2", "about": "“Compounds and compositions for treatment of breathing control disorders or diseases” (GALLEON PHARMACEUTICALS, INC., priority 2010, dated 2015)", "key": {"[1]": {"test_system": "spontaneously breathing rats", "assay": "Minute ventilation (MV) and cardiovascular parameters in naive rats", "format": "in vivo, rat", "parameters": "unit not given here", "experimental": "All surgical procedures were performed under anesthesia induced by 2% isoflurane in compressed medical grade air. With rats in supine position, the right femoral vein was catheterized using polyethylene tubing (PE-50). This catheter was used for fluid and drug administration. Simultaneously, the right femoral artery was also catheterized for monitoring blood pressure and heart rate. In order to measure the respiratory parameters in spontaneously breathing rats, trachea was intubated using 13 gauge tracheal tube (2.5 mm ID, Instech Solomon, Pa.).\nAfter establishing a stable base-line at 1.5% isoflurane, compounds (typically at a dose of 1 mpk) were administered IV, and ventilatory parameters were generated from spontaneously breathing rats, along with cardiovascular output (mean arterial pressure (MAP) and heart rate). Maximum peak minute ventilatory (MV) responses (MPR), along with changes in minute ventilation versus baseline (AMV) were obtained as shown in the tables below."}, "[2]": {"molecular_target": "T1, rat KCNK3/TASK-1 (Rattus norvegicus, UniProt O54912)", "T1 construct": "expressed in transfected cells; host or cells: CHO cells (tetracycline-inducible)", "T1 sequence (O54912 whole entry)": "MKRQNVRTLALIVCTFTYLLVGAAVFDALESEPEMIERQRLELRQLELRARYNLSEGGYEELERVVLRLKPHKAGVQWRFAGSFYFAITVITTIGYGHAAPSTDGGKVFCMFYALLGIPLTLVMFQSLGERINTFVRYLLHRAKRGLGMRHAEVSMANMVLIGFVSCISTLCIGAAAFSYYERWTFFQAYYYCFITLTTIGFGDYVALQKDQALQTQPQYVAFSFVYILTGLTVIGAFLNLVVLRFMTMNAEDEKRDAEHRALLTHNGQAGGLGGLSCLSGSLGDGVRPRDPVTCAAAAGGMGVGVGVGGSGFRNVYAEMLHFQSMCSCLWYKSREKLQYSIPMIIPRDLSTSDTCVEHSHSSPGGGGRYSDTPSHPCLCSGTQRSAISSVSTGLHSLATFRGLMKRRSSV", "assay": "Thallium flux through rat TASK-1 (KCNK3-CHO cells)", "format": "cell-based", "settings": "Tl+ flux; 3 nM to 30 μM; read-out: rTASK-1 IC50", "experimental": "(§1) CHO cells expressing recombinant tetracycline-inducible rat KCNK3/TASK-1 (KCNK3-CHO cells) were plated in poly-D-lysine coated 384-well plates at a density of 6,000 cells/well (50 μl/well of 120,000 cells/mL) and allowed to incubate for 72 hrs in the presence of 5% CO2 and 1 μg/mL tetracycline at 30° C. HEK cells expressing recombinant tetracycline-inducible human KCNK9/TASK-3 (KCNK9-HEK cells) were plated at a density of 15,000 cells per well (50 μl/well, 300,000 cells/mL) and incubated overnight at 37° C. and 5% CO2 in the presence of 1 μg/mL tetracycline.\n(§2) Drug plates were generated from 10 mM 100% DMSO mother plates. Compounds were transferred to 384-well drug plates and titrated with sequential 1:3 dilutions in 100% DMSO for a total of 9 dilutions. A dilution plate is made by taking 2.4 μl from the mother plate and adding to […] of assay buffer for a 12% DMSO dilution plate. From this dilution plate, a final daughter plate is generated by taking 1 μA of the dilution plate and adding to 40 μA of assay buffer for a final DMSO concentration of 0.3%. Each compound was evaluated in duplicate and the concentration range evaluated was 3 nM to 30 μM.\n(§3) When thallium was added to extracellular solution with a stimulus to open channels, Tl^+ flowed down its concentration gradient into the cells and channel activity was detected with an indicator dye, FluxOR™, that increased in cytosolic fluorescence. The FluxOR™ indicator dye was loaded into cells as a membrane permeable acetoxymethyl ester. On the day of each assay, FluxOR™ assay buffer was made fresh from Hank's Balanced Saline Solution (HBSS) buffered with 20 mM HEPES and pH adjusted to 7.4 with NaOH. Dye loading solution was prepared per manufacturer's instructions, and 25 μl of dye solution applied to each well with a multidropper after plating medium was removed manually from cells. Dye was allowed to load for 90 minutes at room temperature in the dark.\n(§4) After the 90 min dye loading incubation and subsequent manual dye removal, 24 μl of the drug daughter plate was transfer to cell plates by a cybi-well system and then incubated at room temperature for 20 minutes to allow for equilibration within wells. Stimulation buffer was prepared from 5× chloride-free buffer, thallium, and potassium sulfate containing 5 times the desired final assay concentration of 10 mM K^+ 2.8 mM Tl^+. Cell plates were then transferred to an FDSS 6000 kinetic imaging plate reader (Hamamatsu). Fluorescence at 525 nm (excitation 488 nm) was measured for 10 seconds at 1 Hz to establish baseline for the entire plate. After baseline was established, 6 μl/well of stimulation buffer was added and fluorescence signal recorded for another 140 seconds.\n(§5) From the fluorescence signals in the absence and presence of Galleon compounds, Inhibitory concentration curves were plotted and IC50 values were estimated using a curve fitting algorithm."}, "[3]": {"molecular_target": "T2, human KCNK9/TASK-3 (Homo sapiens, UniProt Q9NPC2)", "T2 construct": "expressed in transfected cells; host or cells: HEK cells (tetracycline-inducible)", "T2 sequence (Q9NPC2 whole entry)": "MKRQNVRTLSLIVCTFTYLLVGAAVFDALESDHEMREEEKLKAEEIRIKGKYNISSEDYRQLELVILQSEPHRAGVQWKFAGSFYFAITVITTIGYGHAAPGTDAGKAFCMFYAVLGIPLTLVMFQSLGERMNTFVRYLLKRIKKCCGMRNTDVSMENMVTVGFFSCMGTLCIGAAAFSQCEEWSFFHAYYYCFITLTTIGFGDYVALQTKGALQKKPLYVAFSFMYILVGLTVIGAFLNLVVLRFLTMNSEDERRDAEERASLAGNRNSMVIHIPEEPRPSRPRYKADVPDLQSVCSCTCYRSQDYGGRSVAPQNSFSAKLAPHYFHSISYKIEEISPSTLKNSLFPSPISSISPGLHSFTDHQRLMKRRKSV", "assay": "Thallium flux through human TASK-3 (KCNK9-HEK cells)", "format": "cell-based", "settings": "Tl+ flux; 3 nM to 30 μM; read-out: hTASK-3 IC50", "experimental": "as §1, §2, §3, §4, §5"}, "[4]": {"assay": "Solubility in solvents and IV solutions", "format": "physicochemical", "settings": "water, thermodynamic from solid, Solubility", "experimental": "The solubility of (XXXXVI) and XXXV was evaluated in various solvents and IV solutions. Due to limits on the API supply at the time the study was conducted, most of the solvent systems were evaluated to a level of only 100 mg/mL even if the solution was not saturated at this level. Only in water was an attempt made to reach saturation solubility, regardless of how high that solubility might be. Solubility of the salt/free base in each solvent was evaluated in duplicate.\nFor solubility in water, drug was added with intermittent shaking to ensure that excess undissolved drug is present indicating saturation […]. The filtrates were diluted appropriately and analyzed for (XXXV) concentration by HPLC."}, "[5]": {"settings": "Table 8, 1 mpk, 20% HPβCD, pH 4"}}, "note": "Counter-ions that a name gives are not always drawn."}
{"smiles": "CCCNc1nc(NCCC)nc(N(C)OCC2CC2)n1", "note": "[XCI, N-(4,6-Bis-n-propylamino-[1,3,5]triazin-2-yl)-O-cyclopropylmethyl-N-methyl-hydroxylamine]", "values": [{"measurement": "MV MPR", "setting": "[1]; 1 mpk IV, 20% HPβCD, pH 4", "value": 261}, {"measurement": "MV ΔMV", "setting": "[1]; 1 mpk IV, 20% HPβCD, pH 4", "value": 152}, {"measurement": "MV DMV", "setting": "[1]; [5]", "value": 152}, {"measurement": "MV MPR", "setting": "[1]; [5]", "value": 261}]}
{"smiles": "CCCNc1nc(NCCC)nc(N(C)NC)n1", "note": "[XLIX, N-(4,6-Bis-n-propylamino-[1,3,5]triazin-2-yl)-N,N′-dimethyl-hydrazine]", "values": [{"measurement": "MV MPR", "setting": "[1]; 1 mpk IV, 20% HPβCD, pH 5", "value": 338}, {"measurement": "MV ΔMV", "setting": "[1]; 1 mpk IV, 20% HPβCD, pH 5", "value": 216}]}
{"smiles": "CCCNc1nc(NCCC)nc(NN(C)C)n1", "note": "[XLVI, N-(4,6-Bis-n-propylamino-[1,3,5]triazin-2-yl)-N′,N′-dimethylhydrazine]", "values": [{"measurement": "IC50", "setting": "[2]", "value": 600, "unit": "nM"}, {"measurement": "IC50", "setting": "[3]", "value": "> 30", "unit": "µM"}]}
{"smiles": "CCCNc1nc(N)nc(N(C)OC)n1", "note": "[XLVII, 6-(Methoxy(methyl)amino)-N2-propyl-1,3,5-triazine-2,4-diamine]", "values": [{"measurement": "MV MPR", "setting": "[1]; 1 mpk IV, 20% HPβCD, pH 5", "value": 150.73}, {"measurement": "MV ΔMV", "setting": "[1]; 1 mpk IV, 20% HPβCD, pH 5", "value": 61.48}]}
{"smiles": "CCCNc1nc(NCCC)nc(N(C)O)n1", "note": "[XLVIII, N-(4,6-Bis-n-propylamino-[1,3,5]triazin-2-yl)-N-methyl-hydroxylamine]", "values": [{"measurement": "MV MPR", "setting": "[1]; 1 mpk IV, 15/65/20, pH 5", "value": 114}, {"measurement": "MV ΔMV", "setting": "[1]; 1 mpk IV, 15/65/20, pH 5", "value": 30.13}]}
{"smiles": "CNc1nc(NC)nc(N(C)OC)n1", "note": "[XX, N-(4,6-Bis-methylamino-[1,3,5]triazin-2-yl)-N,O-dimethyl-hydroxylamine hydrochloride]", "values": [{"measurement": "MV MPR", "setting": "[1]; 1 mpk IV, 20% HPβCD, pH 4-6", "value": 213}, {"measurement": "MV ΔMV", "setting": "[1]; 1 mpk IV, 20% HPβCD, pH 4-6", "value": 60}]}
{"smiles": "CCNc1nc(NCC)nc(N(C)OC)n1", "note": "[XXII, N-(4,6-Bis-ethylamino-[1,3,5]triazin-2-yl)-N,O-dimethyl-hydroxylamine hydrochloride]", "values": [{"measurement": "MV MPR", "setting": "[1]; 1 mpk IV, 20% HPβCD, pH 4-6", "value": 252}, {"measurement": "MV ΔMV", "setting": "[1]; 1 mpk IV, 20% HPβCD, pH 4-6", "value": 130}]}
{"smiles": "CON(C)c1nc(NCC(C)C)nc(NCC(C)C)n1", "note": "[XXIX, N-(Bis-4,6-(2-methylpropylamino)) [1,3,5]triazin-2-yl)-N,O-dimethyl-hydroxylamine hydrochloride]", "values": [{"measurement": "MV MPR", "setting": "[1]; 1 mpk IV, 20% HPβCD, pH 4-6", "value": 253}, {"measurement": "MV ΔMV", "setting": "[1]; 1 mpk IV, 20% HPβCD, pH 4-6", "value": 161}]}
{"smiles": "CCCNc1nc(NCC2CC2)nc(N(C)OC)n1", "note": "[XXV, N-(4-Cyclopropylmethyl)-N-(6-n-propylamino) [1,3,5]triazin-2-yl)-N,O-dimethyl-hydroxylamine hydrochloride]", "values": [{"measurement": "MV MPR", "setting": "[1]; 1 mpk IV, 20% HPβCD, pH 4-6", "value": 257}, {"measurement": "MV ΔMV", "setting": "[1]; 1 mpk IV, 20% HPβCD, pH 4-6", "value": 126}, {"measurement": "solubility", "setting": "[4]", "value": "~210", "unit": "µg/mL"}]}
{"smiles": "CON(C)c1nc(NC2CC2)nc(NC2CC2)n1", "note": "[XXXIII, 4,6-Bis-N-cyclopropylamino-[1,3,5]triazin-2-yl)-N,O-dimethyl-hydroxylamine hydrochloride]", "values": [{"measurement": "MV MPR", "setting": "[1]; 1 mpk IV, 20% HPβCD, pH 4-6", "value": 147}, {"measurement": "MV ΔMV", "setting": "[1]; 1 mpk IV, 20% HPβCD, pH 4-6", "value": 53}]}
{"smiles": "CON(C)c1nc(NCC(C)(C)C)nc(NCC(C)(C)C)n1.Cl", "note": "[XXXI]", "values": [{"measurement": "MV DMV", "setting": "[1]; [5]", "value": 43}, {"measurement": "MV MPR", "setting": "[1]; [5]", "value": 140}]}
